Data: patent publication US20240262826A1, “WILD TYPE KIT INHIBITORS” (Blueprint Medicines Corporation, priority 2022, published 2024)

Biological target: wild type c-kit (Homo sapiens (Human), UniProt P10721)
Assay: PathScan phospho c-kit (Tyr719) sandwich ELISA in SCF-stimulated M-07e cells (pKIT assay)
Type: cell-based
Conditions: ELISA assay (values not marked *)
How it was run: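 Tyr719-phosphorylated c-kit was measured by colorimetric (TMB) sandwich ELISA in lysates of M-07e cells. Cells were starved 4 h without serum or GM-CSF, dosed 60 min at 37 °C with compound (8 points, duplicate, 0.25% DMSO), and stimulated 10 min with human SCF (500 ng/mL as added). IC50 values came from 4-parameter logistic regression.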

Sequence of wild type c-kit (P10721 26-976): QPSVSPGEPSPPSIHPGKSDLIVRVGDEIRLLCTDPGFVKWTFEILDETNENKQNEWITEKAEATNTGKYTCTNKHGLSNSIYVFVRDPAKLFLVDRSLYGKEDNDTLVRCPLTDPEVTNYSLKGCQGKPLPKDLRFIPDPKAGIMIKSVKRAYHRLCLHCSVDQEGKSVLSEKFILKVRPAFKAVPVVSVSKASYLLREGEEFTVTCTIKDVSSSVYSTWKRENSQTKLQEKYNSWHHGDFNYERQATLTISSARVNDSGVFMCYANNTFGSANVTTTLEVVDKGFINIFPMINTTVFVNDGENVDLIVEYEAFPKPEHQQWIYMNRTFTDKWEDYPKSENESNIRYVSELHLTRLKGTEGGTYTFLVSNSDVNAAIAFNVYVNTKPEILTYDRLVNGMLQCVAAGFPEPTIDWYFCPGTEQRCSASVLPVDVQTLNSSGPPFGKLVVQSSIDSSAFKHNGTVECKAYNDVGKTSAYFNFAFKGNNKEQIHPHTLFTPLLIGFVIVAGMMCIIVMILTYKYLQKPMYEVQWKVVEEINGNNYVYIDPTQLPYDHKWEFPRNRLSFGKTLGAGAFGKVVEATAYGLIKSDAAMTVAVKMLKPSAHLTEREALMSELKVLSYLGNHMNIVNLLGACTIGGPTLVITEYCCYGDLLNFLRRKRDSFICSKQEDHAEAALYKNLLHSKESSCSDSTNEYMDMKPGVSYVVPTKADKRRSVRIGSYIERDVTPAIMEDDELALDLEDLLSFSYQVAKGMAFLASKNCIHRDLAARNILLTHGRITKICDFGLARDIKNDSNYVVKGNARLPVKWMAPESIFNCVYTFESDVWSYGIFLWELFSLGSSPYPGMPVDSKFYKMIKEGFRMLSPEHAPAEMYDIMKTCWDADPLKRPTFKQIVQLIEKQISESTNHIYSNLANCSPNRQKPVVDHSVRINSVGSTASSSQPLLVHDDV

Row | Structure (SMILES) | IC50 [nM]
1 | Cc1cc(C2CC2)c(-c2nnn(C3CC(F)(F)C3)n2)cc1NC(=O)c1cnn2ccc(N3CCOCC3)cc12 [Example 166, N-(4-cyclopropyl-5-(2-(3,3-difluorocyclobutyl)-2H-tetrazol-5-yl)-2-methylphenyl)-5-morpholinopyrazolo[1,5-a]pyridine-3-carboxamide] | 37.7
2 | CCn1nnc(-c2cc(NC(=O)c3cnn4ccc(-c5cn(C[C@H](O)COC)nc5C)cc34)c(Cl)cc2F)n1 [Example 282, (S)—N-(2-chloro-5-(2-ethyl-2H-tetrazol-5-yl)-4-fluorophenyl)-5-(1-(2-hydroxy-3-methoxypropyl)-3-methyl-1H-pyrazol-4-yl)pyrazolo[1,5-a]pyridine-3-carboxamide] | 0.2
3 | Cc1ccc(-c2nnn(C3CC(F)(F)C3)n2)cc1NC(=O)c1cnn2ccc(N3CC(CO)C3)cc12 [Example 103, N-(5-(2-(3,3-difluorocyclobutyl)-2H-tetrazol-5-yl)-2-methylphenyl)-5-(3-(hydroxymethyl)azetidin-1-yl)pyrazolo[1,5-a]pyridine-3-carboxamide] | 2.4
4 | Cc1c(-c2ccn3ncc(C(=O)Nc4cc(-c5nnn(C6CC6)n5)c(F)cc4Cl)c3c2)cnn1C[C@H](C)O [Example 264, (S)-N-(2-chloro-5-(2-cyclopropyl-2H-tetrazol-5-yl)-4-fluorophenyl)-5-(1-(2-hydroxypropyl)-5-methyl-1H-pyrazol-4-yl)pyrazolo[1,5-a]pyridine-3-carboxamide] | 0.5
5 | Cc1ccc(-c2nnn(C)n2)cc1NC(=O)c1cnn2ccccc12 [Example 2, N-(2-methyl-5-(2-methyl-2H-tetrazol-5-yl)phenyl)pyrazolo[1,5-a]pyridine-3-carboxamide] | 4.8
6 | CNc1ccn2ncc(C(=O)Nc3cc(-c4nnn(C5CN(C(=O)OC)C5)n4)ccc3C)c2c1 [Example 133, methyl 3-(5-(4-methyl-3-(5-(methylamino)pyrazolo[1,5-a]pyridine-3-carboxamido)phenyl)-2H-tetrazol-2-yl)azetidine-1-carboxylate] | 34.5
7 | Cc1cc(Cl)c(-c2nnn(C3CC3)n2)cc1NC(=O)c1cnn2ccc(-c3cnn(CC(C)(C)O)c3)cc12 [Example 226, N-(4-chloro-5-(2-cyclopropyl-2H-tetrazol-5-yl)-2-methylphenyl)-5-(1-(2-hydroxy-2-methylpropyl)-1H-pyrazol-4-yl)pyrazolo[1,5-a]pyridine-3-carboxamide] | 0.5
8 | Cc1nnn(-c2ccc(C)c(NC(=O)c3cnn4ccc(-c5c(C)nn(CC(C)(C)O)c5C)cc34)c2)n1 [Example 244, 5-(1-(2-hydroxy-2-methylpropyl)-3,5-dimethyl-1H-pyrazol-4-yl)-N-(2-methyl-5-(5-methyl-2H-tetrazol-2-yl)phenyl)pyrazolo[1,5-a]pyridine-3-carboxamide] | 0.4
9 | Cc1ccc(-c2nnn(C3CC3)n2)cc1NC(=O)c1cnn2ccc(-c3cn([C@H](C)[C@H](C)O)nc3C)cc12 (single isomer, unassigned) [Example 269, N-(5-(2-cyclopropyl-2H-tetrazol-5-yl)-2-methylphenyl)-5-(1-((2R,3S)-3-hydroxybutan-2-yl)-3-methyl-1H-pyrazol-4-yl)pyrazolo[1,5-a]pyridine-3-carboxamide or N-(5-(2-cyclopropyl-2H-tetrazol-5-yl)-2-methylphenyl)-5-(1-((2S,3R)-3-hydroxybutan-2-yl)-3-methyl-1H-pyrazol-4-yl)pyrazolo[1,5-a]pyridine-3-carboxamide] | 0.3
10 | COC(=O)N1CC(n2nnc(-c3ccc(C)c(NC(=O)c4cnn5ccc(NCC(F)F)cc45)c3)n2)C1 [Example 131, methyl 3-(5-(3-(5-((2,2-difluoroethyl)amino)pyrazolo[1,5-a]pyridine-3-carboxamido)-4-methylphenyl)-2H-tetrazol-2-yl)azetidine-1-carboxylate] | 49
11 | COC(=O)N1CC(n2nnc(-c3ccc(C)c(NC(=O)c4cnn5ccc(NC[C@H](C)OC)cc45)c3)n2)C1 [Example 134, methyl (S)-3-(5-(3-(5-((2-methoxypropyl)amino)pyrazolo[1,5-a]pyridine-3-carboxamido)-4-methylphenyl)-2H-tetrazol-2-yl)azetidine-1-carboxylate] | 32.4
12 | COCCOC[C@@H](O)Cn1cc(-c2ccn3ncc(C(=O)Nc4cc(-c5nnn(C6CC6)n5)c(F)cc4Cl)c3c2)c(C)n1 [Example 285, (S)—N-(2-chloro-5-(2-cyclopropyl-2H-tetrazol-5-yl)-4-fluorophenyl)-5-(1-(2-hydroxy-3-(2-methoxyethoxy)propyl)-3-methyl-1H-pyrazol-4-yl)pyrazolo[1,5-a]pyridine-3-carboxamide] | 1
13 | COCC(C)Nc1ccn2ncc(C(=O)Nc3cc(-c4nnn(C5CN(C(=O)OC)C5)n4)ccc3C)c2c1 (stereo in doubt) [Example 128, methyl (S)-3-(5-(3-(5-((1-methoxypropan-2-yl)amino)pyrazolo[1,5-a]pyridine-3-carboxamido)-4-methylphenyl)-2H-tetrazol-2-yl)azetidine-1-carboxylate] | 47.4
14 | COC(=O)N1CC(n2nnc(-c3ccc(C)c(NC(=O)c4cnn5ccccc45)c3)n2)C1 [Example 191, methyl 3-(5-(4-methyl-3-(pyrazolo[1,5-a]pyridine-3-carboxamido)phenyl)-2H-tetrazol-2-yl)azetidine-1-carboxylate] | 41.3
15 | Cc1ccc(-c2nnn(CCOC(C)C)n2)cc1NC(=O)c1cnn2ccccc12 [Example 11, N-(5-(2-(2-isopropoxyethyl)-2H-tetrazol-5-yl)-2-methylphenyl)pyrazolo[1,5-a]pyridine-3-carboxamide] | 2.5
16 | Cc1ccc(-c2nnn(CCCC(F)(F)F)n2)cc1NC(=O)c1cnn2ccccc12 [Example 1, N-(2-methyl-5-(2-(4,4,4-trifluorobutyl)-2H-tetrazol-5-yl)phenyl)pyrazolo[1,5-a]pyridine-3-carboxamide] | 3.8
17 | COCCOCCS(=O)(=O)N1CC(n2nnc(-c3ccc(C)c(NC(=O)c4cnn5ccccc45)c3)n2)C1 [Example 185, N-(5-(2-(1-((2-(2-methoxyethoxy)ethyl)sulfonyl)azetidin-3-yl)-2H-tetrazol-5-yl)-2-methylphenyl)pyrazolo[1,5-a]pyridine-3-carboxamide] | 161
18 | COC(=O)N1CC(c2cnn(-c3ccc(C)c(NC(=O)c4cnn5cc(N6CCOCC6)ccc45)c3)n2)C1 [Example 160, methyl 3-(2-(4-methyl-3-(6-morpholinopyrazolo[1,5-a]pyridine-3-carboxamido)phenyl)-2H-1,2,3-triazol-4-yl)azetidine-1-carboxylate] | 14.9
19 | COC(=O)N1CC(n2nnc(-c3cc(NC(=O)c4cnn5cc(OCCO)ccc45)c(C)cc3F)n2)C1 [Example 223, methyl 3-(5-(2-fluoro-5-(6-(2-hydroxyethoxy)pyrazolo[1,5-a]pyridine-3-carboxamido)-4-methylphenyl)-2H-tetrazol-2-yl)azetidine-1-carboxylate] | 23.4
20 | Cc1ccc(-c2nnn(C3CN(S(=O)(=O)C4COC4)C3)n2)cc1NC(=O)c1cnn2ccccc12 [Example 183, N-(2-methyl-5-(2-(1-(oxetan-3-ylsulfonyl)azetidin-3-yl)-2H-tetrazol-5-yl)phenyl)pyrazolo[1,5-a]pyridine-3-carboxamide] | 45.4
21 | COC(=O)N1CC(n2nnc(-c3ccc(C)c(NC(=O)c4cnn5ccc(N6CCC[C@@H](O)C6)cc45)c3)n2)C1 [Example 71, methyl (R)-3-(5-(3-(5-(3-hydroxypiperidin-1-yl)pyrazolo[1,5-a]pyridine-3-carboxamido)-4-methylphenyl)-2H-tetrazol-2-yl)azetidine-1-carboxylate] | 41.6
22 | O=C(Nc1cc(-c2nnn(C3CC(F)(F)C3)n2)c(C2CC2)cc1Cl)c1cnn2ccc(N3CCOCC3)cc12 [Example 117, N-(2-chloro-4-cyclopropyl-5-(2-(3,3-difluorocyclobutyl)-2H-tetrazol-5-yl)phenyl)-5-morpholinopyrazolo[1,5-a]pyridine-3-carboxamide] | 52.7
23 | Cc1ccc(-c2nnn(CC3CC3)n2)cc1NC(=O)c1cnn2ccccc12 [Example 7, N-(5-(2-(cyclopropylmethyl)-2H-tetrazol-5-yl)-2-methylphenyl)pyrazolo[1,5-a]pyridine-3-carboxamide] | 13.6
24 | COC[C@@H](C)Nc1ccn2ncc(C(=O)Nc3cc(-c4nnn(C5CN(C(=O)OC)C5)n4)ccc3C)c2c1 [Example 135, methyl (R)-3-(5-(3-(5-((1-methoxypropan-2-yl)amino)pyrazolo[1,5-a]pyridine-3-carboxamido)-4-methylphenyl)-2H-tetrazol-2-yl)azetidine-1-carboxylate] | 53.8
25 | Cc1ccc(-c2nnn(C3CN(S(=O)(=O)CCC(F)F)C3)n2)cc1NC(=O)c1cnn2ccccc12 [Example 184, N-(5-(2-(1-((3,3-difluoropropyl)sulfonyl)azetidin-3-yl)-2H-tetrazol-5-yl)-2-methylphenyl)pyrazolo[1,5-a]pyridine-3-carboxamide] | 6.2
26 | COC[C@@H](O)Cn1ncc(-c2ccn3ncc(C(=O)Nc4cc(-c5nnn(C6CC6)n5)c(C)cc4Cl)c3c2)c1C [Example 262, (S)-N-(2-chloro-5-(2-cyclopropyl-2H-tetrazol-5-yl)-4-methylphenyl)-5-(1-(2-hydroxy-3-methoxypropyl)-5-methyl-1H-pyrazol-4-yl)pyrazolo[1,5-a]pyridine-3-carboxamide] | 1.1
27 | Cc1cc(F)c(-c2nnn(C3CC3)n2)cc1NC(=O)c1cnn2ccc(-c3cn(C[C@@H](O)C(C)(C)O)nc3C3CC3)cc12 [Example 259, (R)-5-(3-cyclopropyl-1-(2,3-dihydroxy-3-methylbutyl)-1H-pyrazol-4-yl)-N-(5-(2-cyclopropyl-2H-tetrazol-5-yl)-4-fluoro-2-methylphenyl)pyrazolo[1,5-a]pyridine-3-carboxamide] | 0.4
